Experimental data reported in the NIST ThermoML archive (doi:10.1021/je800439e).
Several values for one entry are separate records, joined by “and”; a condition that tells them apart may be missing. Equal entries are not always repeated.

How the values were obtained:
[1] = 101 kPa, Liquid
[2] = xn = mol fraction of the nth substance listed; conditions: 101 kPa, Liquid

Cc1c(C)c2c(c(C)c1O)CCC(C)(CCCC(C)CCCC(C)CCCC(C)C)O2 (racemic) [dl-α-tocopherol]
[1]
Conditions	viscosity
278.15 K	37128 mPa·s
284.15 K	15242 mPa·s
290.15 K	6380 mPa·s and 6380.1 mPa·s
296.15 K	3017.5 mPa·s
302.15 K	1531 mPa·s
308.15 K	814.81 mPa·s
314.15 K	454.58 mPa·s
320.15 K	283.56 mPa·s
325.15 K	187.51 mPa·s
330.15 K	129.2 mPa·s
335.15 K	92.65 mPa·s
340.15 K	67.32 mPa·s
345.15 K	49.98 mPa·s
350.15 K	37.4 mPa·s

Cc1cc(C)cc(C)c1 [1,3,5-trimethylbenzene]
[1]
Conditions	viscosity [mPa·s]
278.15 K	0.85
284.15 K	0.8
290.15 K	0.75
296.15 K	0.63
302.15 K	0.57
308.15 K	0.53
314.15 K	0.49
320.15 K	0.46
325.15 K	0.44
330.15 K	0.41
335.15 K	0.4
340.15 K	0.39
345.15 K	0.35
350.15 K	0.34

Cc1cc(C)cc(C)c1 [1,3,5-trimethylbenzene] + Cc1c(C)c2c(c(C)c1O)CCC(C)(CCCC(C)CCCC(C)CCCC(C)C)O2
[2], x2 = 0
Conditions	viscosity [mPa·s]
278.15 K	0.85
284.15 K	0.8
290.15 K	0.75
296.15 K	0.63
302.15 K	0.57
308.15 K	0.53
314.15 K	0.49
320.15 K	0.46
325.15 K	0.44
330.15 K	0.41
335.15 K	0.4
340.15 K	0.39
345.15 K	0.35
350.15 K	0.34

CCCCCc1ccc(C2CCC(CCC)CC2)cc1 (stereo not given) [1-pentyl-4-(4-propylcyclohexyl)-benzene]
[1]
Conditions	viscosity [mPa·s]
278.15 K	27.74
284.15 K	21.48
290.15 K	16.95
296.15 K	13.5
302.15 K	11.09
308.15 K	9.21
314.15 K	7.64
320.15 K	6.58
325.15 K	6.01
330.15 K	5.19
335.15 K	4.57
340.15 K	4.13
345.15 K	3.68
350.15 K	3.29

CCCCCc1ccc(C2CCC(CCC)CC2)cc1 (stereo not given) [1-pentyl-4-(4-propylcyclohexyl)-benzene] + Cc1c(C)c2c(c(C)c1O)CCC(C)(CCCC(C)CCCC(C)CCCC(C)C)O2
viscosity [mPa·s], [2]
Conditions	x2 = 0	x2 = 0.2058	x2 = 0.4023	x2 = 0.6026	x2 = 0.8018
278.15 K	27.74	75.95	384.28	1270.6	7471.9
284.15 K	21.48	53.48	231.6	794.38	3488.2
290.15 K	16.95	38.25	145.52	441.94	1669.9
296.15 K	13.5	28.1	96.37	266.41	911.16
302.15 K	11.09	21.57	65.92	163.27	485.33
308.15 K	9.21	16.8	46.14	106.33	278.53
314.15 K	7.64	13.17	33.91	71.05	173.09
320.15 K	6.58	10.98	26.01	51.66	120.77
325.15 K	6.01	9.33	20.65	39.36	82.86
330.15 K	5.19	7.98	16.86	30.2	61.04
335.15 K	4.57	6.85	14.03	24.08	46.15
340.15 K	4.13	6.04	11.75	19.47	35.24
345.15 K	3.68	5.37	9.97	16.1	27.32
350.15 K	3.29	4.7	8.55	13.3	22.24

Cc1c(C)c2c(c(C)c1O)CCC(C)(CCCC(C)CCCC(C)CCCC(C)C)O2 (stereo not drawn) [dl-α-tocopherol] + CCCCCc1ccc(C2CCC(CCC)CC2)cc1
[2], x1 = 1
Conditions	viscosity [mPa·s]
278.15 K	37128
284.15 K	15242
290.15 K	6380
296.15 K	3017.5
302.15 K	1531
308.15 K	814.81
314.15 K	454.58
320.15 K	283.56
325.15 K	187.51
330.15 K	129.2
335.15 K	92.65
340.15 K	67.32
345.15 K	49.98
350.15 K	37.4

Cc1c(C)c2c(c(C)c1O)CCC(C)(CCCC(C)CCCC(C)CCCC(C)C)O2 (stereo not drawn) [dl-α-tocopherol] + Cc1cc(C)cc(C)c1
viscosity [mPa·s], [2]
Conditions	x1 = 0.2025	x1 = 0.4036	x1 = 0.5972	x1 = 0.7955	x1 = 1
278.15 K	6.85	148.08	1253.6	5944.7	37128
284.15 K	5.55	92.32	658.51	3037.6	15242
290.15 K	4.6	56.98	357.26	1533.2	6380.1
296.15 K	3.88	38	210.82	819.67	3017.5
302.15 K	3.24	26.65	130.99	477.36	1531
308.15 K	2.94	19.06	83.96	276.12	814.81
314.15 K	2.39	14.43	55.52	173.98	454.58
320.15 K	2.14	11.42	40.57	116	283.56
325.15 K	1.96	9.28	30.55	82.01	187.51
330.15 K	1.83	7.75	23.73	60.1	129.2
335.15 K	1.72	6.56	18.89	45.63	92.65
340.15 K	1.65	5.59	15.33	34.46	67.32
345.15 K	1.52	4.81	12.33	26.47	49.98
350.15 K	1.37	4.25	10.5	21.44	37.4
